How the values were obtained:
[1] = Pharmacokinetics after intravenous and oral administration in rats; assay type: in vivo; conditions: for Clearance (CL) after iv dosing / AUC(0-t) / half-life / Vd: dose 1 mg/kg (Ex. 27: 0.72 mg/kg), iv dosing; for F: oral bioavailability; for AUC(0-t) / half-life / Vd: rat, plasma; for Vd: read-out: Vss
Method: The LC/MS/MS system used in the analysis consists of an Agilent 1200 Series vacuum degasser, binary pump, well-plate autosampler, thermostatted column compartment, the Agilent G6430 Triple Quadrupole Mass Spectrometer with an electrosprayionization (ESI) source. Quantitative analysis was carried out using MRM mode. The parameters for MRM transitions are in the Table A.
An Agilent XDB-C18, 2.1×30 mm, 3.5 μM column was used for the analysis. 5 μL of the samples were injected. Analysis condition: The mobile phase was 0.1% formic acid in water (A) and 0.1% formic acid in methanol (B). The flow rate was 0.4 mL/min. And the gradient of Mobile phase was in the Table B.
Alternatively, an Agilent 6330 series LC/MS/MS spectrometer equipped with G1312A binary pumps, a G1367A autosampler and a G1314C UV detector were used in the analysis. An ESI source was used on the LC/MS/MS spectrometer. The analysis was done in positive ion mode as appropriate and the MRM transition for each analyte was optimized using standard solution. A Capcell MP-C18 100×4.6 mm I.D., […] column (Phenomenex, Torrance, Calif., USA) was used during the analysis. The mobile phase was 5 mM ammonia acetate, 0.1% MeOH in water (A): 5 mM ammonia acetate, 0.1% MeOH in acetonitrile (B) (70:30, v/v). The flow rate was 0.6 mL/min. Column was maintained at ambient temperature. 20 μL of the samples were injected.
The compounds disclosed herein are assessed in pharmacokinetic studies in mice, rats, dogs or monkeys. The compounds are administered as a water solution, 2% HPMC+1% TWEEN®80 in water solution, 5% DMSO+5% solution in saline, 4% MC suspension or capsule. For the intravenous administration, the animals are generally given at 1 or 2 mg/kg dose. For the oral (p.o.) dosing, mice and rats are generally given 5 or 10 mg/kg dose, and dogs and monkeys are generally given 10 mg/kg dose. The blood samples (0.3 mL) are drawn at 0.25, 0.5, 1.0, 2.0, 3.0, 4.0, 6.0, 8.0, 12 and 24 h time points or 0.083, 0.25, 0.5, 1.0, 2.0, 4.0, 6.0, 8.0 and 24 h time points and centrifuged at 3,000 or 4000 rpm for 2 to 10 min. The plasma solutions are collected, and stored at −20° C. or −70° C. until analyzed by LC/MS/MS as described above.

JAK1 (h) = JAK1 (h) (Homo sapiens (Human), UniProt P23458); test: JAK1 kinase assay (33P-ATP filter binding, Millipore); assay type: biochemical
Method: Kinase assays can be performed by measurement of incorporation of γ-^33P ATP into immobilized myelin basic protein (MBP). High binding white 384 well plates (Greiner) are coated with MBP (Sigma #M−1891) by incubation of 60 μL/well of 20 μg/mL MBP in Tris-buffered saline (TBS; 50 mM Tris pH 8.0, 138 mM NaCl, 2.7 mM KCl) for 24 h at 4° C. Plates are washed 3× with 100 μL TBS. Kinase reactions are carried out in a total volume of 34 μL in kinase buffer (5 mM Hepes pH 7.6, 15 mM NaCl, 0.01% bovine gamma globulin (Sigma #I-5506), 10 mM MgCl2, 1 mM DTT, 0.02% TritonX-100). Compound dilutions are performed in DMSO and added to assay wells to a final DMSO concentration of 1%. Each data point is measured in duplicate, and at least two duplicate assays are performed for each individual compound determination. Enzyme is added to final concentrations of 10 nM or 20 nM, for example. A mixture of unlabeled ATP and γ-^33P ATP is added to start the reaction (2×10^6 cpm of γ-^33P ATP per well (3000 Ci/mmole) and 10 μM unlabeled ATP, typically. The reactions are carried out for 1 h at room temperature with shaking. Plates are washed 7× with TBS, followed by the addition of 50 μL/well scintillation fluid (Wallac). Plates are read using a Wallac Trilux counter. This is only one format of such assays; various other formats are possible, as known to one skilled in the art.
The above assay procedure can be used to determine the IC50 for inhibition and/or the inhibition constant, Ki. The IC50 is defined as the concentration of compound required to reduce the enzyme activity by 50% under the condition of the assay. The IC50 value is estimated by preparing a 10 point curve using a 1/2 log dilution series (for example, a typical curve may be prepared using the following compound concentrations: 3 μM, 1 μM, 0.3 μM, 0.1 μM, 0.03 μM, 0.01 μM, 0.003 μM, 0.001 μM, 0.0003 μM and 0 μM).
The kinase assays described herein were performed at Millipore UK Ltd, Dundee Technology Park, Dundee DD2 1SW, UK.

[2] = Compound stability in rat liver microsomes; assay type: in vitro ADME; conditions: for half-life at 5 μM: compound 5 μM, NADPH 1.0 mM, 37° C.; for CLint scaled at 5 μM: in vivo CLint extrapolated
Method: (§1) Human or rat liver microsomes incubations were conducted in duplicate in polypropylene tubes. The typical incubation mixtures consisted of human or rat liver microsomes (0.5 mg protein/mL), compounds of interest (5 μM) and NADPH (1.0 mM) in a total volume of 200 μL potassium phosphate buffer (PBS, 100 mM, pH 7.4). Compounds were dissolved in DMSO and diluted with PBS such that the final concentration of DMSO was 0.05%. The enzymatic reactions were commenced with the addition of protein after a 3-min preincubation and incubated in a water bath open to the air at 37° C. Reactions were terminated at various time points (0, 5, 10, 15, 30, 60 min) by adding equal volume of ice-cold acetonitrile. The samples were stored at −80° C. until LC/MS/MS assays.
(§2) The concentrations of compounds in the incubation mixtures of human or rat liver microsomes were determined by a LC/MS/MS method. The ranges of the linearity in the concentration range were determined for each tested compounds.
(§3) A parallel incubation was performed using denatured microsomes as the negative control, and reactions were terminated at various time points (0, 15, 60 min) after incubation at 37° C.
(§4) Dextromethorphan (70 μM) was selected as the positive control, and reactions were terminated at various time points (0, 5, 10, 15, 30, 60 min) after incubation at 37° C. Both positive and negative control samples were included in each assay to ensure the integrity of the microsomal incubation system.
(§5) The concentrations of compounds in human or rat liver microsome incubations were plotted as a percentage of the relevant zero time point control for each reaction. The in vivo CLint were extrapolated (ref.: Naritomi, Y.; Terashita, S.; Kimura, S.; Suzuki, A.; Kagayama, A.; and Sugiyama, Y.; Prediction of human hepatic clearance from in vivo animal experiments and in vitro metabolic studies with liver microsomes from animals and humans. Drug Metab. Dispos., 2001, 29: 1316-1324).

[3] = Compound stability in human liver microsomes; assay type: in vitro ADME; conditions: for half-life at 5 μM: compound 5 μM, NADPH 1.0 mM, 37° C.; for CLint scaled at 5 μM: in vivo CLint extrapolated
Method: as §1, §2, §3, §4, §5

[4] = pH 7.4, Rat liver microsomes 0.5 mg protein/mL
[5] = pH 7.4, Human liver microsomes 0.5 mg protein/mL
[6] = rat, liver microsomes, pH 7.4, Rat liver microsomes 0.5 mg protein/mL
[7] = rat, liver microsomes, pH 7.4, Rat liver microsomes
[8] = human, liver microsomes, pH 7.4, Human liver microsomes 0.5 mg protein/mL
[9] = human, liver microsomes, pH 7.4, Human liver microsomes

Chain of JAK1 (h) (P23458 whole entry): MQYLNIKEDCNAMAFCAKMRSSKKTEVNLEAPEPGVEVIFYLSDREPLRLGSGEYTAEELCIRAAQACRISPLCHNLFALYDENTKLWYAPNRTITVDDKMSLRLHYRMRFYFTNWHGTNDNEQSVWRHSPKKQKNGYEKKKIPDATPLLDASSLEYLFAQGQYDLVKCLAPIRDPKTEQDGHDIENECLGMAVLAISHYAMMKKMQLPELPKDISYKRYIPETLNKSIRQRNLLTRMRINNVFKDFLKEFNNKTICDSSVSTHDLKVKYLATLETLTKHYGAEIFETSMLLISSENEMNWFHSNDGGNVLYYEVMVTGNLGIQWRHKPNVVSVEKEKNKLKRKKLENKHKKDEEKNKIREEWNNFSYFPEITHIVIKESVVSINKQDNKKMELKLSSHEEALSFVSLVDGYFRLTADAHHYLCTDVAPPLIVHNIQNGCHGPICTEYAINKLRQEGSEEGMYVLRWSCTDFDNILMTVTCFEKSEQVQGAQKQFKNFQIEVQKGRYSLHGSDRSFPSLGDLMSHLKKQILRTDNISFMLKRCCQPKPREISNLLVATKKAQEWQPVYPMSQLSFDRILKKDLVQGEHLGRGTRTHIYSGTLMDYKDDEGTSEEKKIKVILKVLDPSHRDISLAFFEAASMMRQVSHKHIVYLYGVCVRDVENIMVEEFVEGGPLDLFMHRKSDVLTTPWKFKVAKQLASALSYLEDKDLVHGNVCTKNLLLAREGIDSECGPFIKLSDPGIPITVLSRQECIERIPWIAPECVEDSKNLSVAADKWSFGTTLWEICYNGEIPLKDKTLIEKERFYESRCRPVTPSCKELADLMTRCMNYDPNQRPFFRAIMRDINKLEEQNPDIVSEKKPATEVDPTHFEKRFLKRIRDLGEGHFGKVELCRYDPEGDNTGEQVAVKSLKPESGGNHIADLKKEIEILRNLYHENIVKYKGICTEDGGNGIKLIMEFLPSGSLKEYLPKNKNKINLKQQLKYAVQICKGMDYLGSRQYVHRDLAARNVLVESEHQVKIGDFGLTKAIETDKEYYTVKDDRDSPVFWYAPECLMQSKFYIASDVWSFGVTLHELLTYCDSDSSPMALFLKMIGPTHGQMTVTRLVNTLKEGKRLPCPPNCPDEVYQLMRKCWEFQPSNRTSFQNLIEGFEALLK

| Structure (SMILES) | Clearance (CL) after iv dosing [1] | F [1] | AUC(0-t) [1] | half-life [1] | Vd [1] | IC50 (JAK1 (h)) | half-life at 5 μM [2, 4] | CLint scaled at 5 μM ([2]; pH 7.4, Rat liver microsomes) | half-life at 5 μM [3, 5] | CLint scaled at 5 μM ([3]; pH 7.4, Human liver microsomes) | half-life at 5 μM [2, 6] | CLint scaled at 5 μM [2, 7] | half-life at 5 μM [3, 8] | CLint scaled at 5 μM [3, 9] |
| --- | --- | --- | --- | --- | --- | --- | --- | --- | --- | --- | --- | --- | --- | --- |
| Cn1cc(Nc2ncc(Cl)c(NC3CN(C(=O)CC#N)CC34CCCC4)n2)cn1 (centres unmarked) [Ex. 18, 3-(4-((5-chloro-2-((1-methyl-1H-pyrazol-4-yl)amino)pyrimidin-4-yl)amino)-2-azaspiro[4.4]nonan-2-yl)-3-oxopropanenitrile] | 2.75 L/h/kg | 55.9% | 0.731 µg·h/mL | 136 min | 4.32 L/kg | 7 nM | – | – | – | – | – | – | – | – |
| N#CCC(=O)N1CCC2(CCC(Nc3nc(Nc4cnn(CC5CC5)c4)ncc3Cl)CC2)CC1 [Ex. 48, 3-(9-((5-chloro-2-((1-(cyclopropylmethyl)-1H-pyrazol-4-yl)amino)pyrimidin-4-yl)amino)-3-azaspiro[5.5]undecan-3-yl)-3-oxopropanenitrile] | 3.97 L/h/kg | 13.6% | 0.252 µg·h/mL | 43.8 min | 3.41 L/kg | 0.4 nM | – | – | – | – | 24.3 min | 6.13 L/h/kg | 47.6 min | 2.19 L/h/kg |
| N#CCC(=O)N1CCC2(CCC(Nc3nc(Nc4cnn(CCO)c4)ncc3Cl)CC2)CC1 [Ex. 50, 3-(9-((5-chloro-2-((1-(2-hydroxyethyl)-1H-pyrazol-4-yl)amino)pyrimidin-4-yl)amino)-3-azaspiro[5.5]undecan-3-yl)-3-oxopropanenitrile] | 2.59 L/h/kg | 17.3% | 0.384 µg·h/mL | 59.4 min | 1.93 L/kg | 14 nM | – | – | – | – | 308 min | 0.484 L/h/kg | 537 min | 0.194 L/h/kg |
| Cn1nc(C2CC2)cc1Nc1ncc(Cl)c(NC2CC3CN(C(=O)CC#N)CC3C2)n1 (centres unmarked) [Ex. 56, 3-(5-((5-chloro-2-((3-cyclopropyl-1-methyl-1H-pyrazol-5-yl)amino)pyrimidin-4-yl)amino)hexahydrocyclopenta[c]pyrrol-2(1H)-yl)-3-oxopropanenitrile] | 2.18 L/h/kg | 31.3% | 0.459 µg·h/mL | 32.4 min | 0.95 L/kg | 5 nM | 41.4 min | 3.6 L/h/kg | 37.6 min | 2.77 L/h/kg | – | – | – | – |
| Cc1cnc(Nc2cnn(C)c2)nc1NC1CC2CN(c3ccc(C#N)cn3)CC2C1 (centres unmarked) [Ex. 59, 6-(5-((5-methyl-2-((1-methyl-1H-pyrazol-4-yl)amino)pyrimidin-4-yl)amino)hexahydrocyclopenta[c]pyrrol-2(1H)-yl)nicotinonitrile] | 1.61 L/h/kg | 36.9% | 0.648 µg·h/mL | 58.2 min | 1.76 L/kg | 1 nM | – | – | – | – | – | – | – | – |
| Cc1cnc(Nc2cnn(C)c2)nc1NC1CC2CN(S(C)(=O)=O)CC2C1 (centres unmarked) [Ex. 62, 5-methyl-N^2-(1-methyl-1H-pyrazol-4-yl)-N^4-(2-(methylsulfonyl)octahydrocyclopenta[c]pyrrol-5-yl)pyrimidine-2,4-diamine] | 4.97 L/h/kg | 29.6% | 0.184 µg·h/mL | 48.6 min | 5.43 L/kg | 4 nM | 81.1 min | 1.84 L/h/kg | 271 min | 0.385 L/h/kg | – | – | – | – |

Continued, in another order:

| Clearance (CL) after iv dosing [1] | F [1] | AUC(0-t) [1] | half-life [1] | Vd [1] | IC50 (JAK1 (h)) | half-life at 5 μM [2, 4] | CLint scaled at 5 μM ([2]; pH 7.4, Rat liver microsomes) | half-life at 5 μM [3, 5] | CLint scaled at 5 μM ([3]; pH 7.4, Human liver microsomes) | Structure (SMILES) | half-life at 5 μM [2, 6] | CLint scaled at 5 μM [2, 7] | half-life at 5 μM [3, 8] | CLint scaled at 5 μM [3, 9] |
| --- | --- | --- | --- | --- | --- | --- | --- | --- | --- | --- | --- | --- | --- | --- |
| 2.96 L/h/kg | 12.0% | 0.343 µg·h/mL | 33 min | 1.09 L/kg | 57 nM | 398 min | 0.374 L/h/kg | 243 min | 0.429 L/h/kg | N#CCC(=O)N1CC2CC(Nc3nc(Nc4cnn(CCO)c4)ncc3Cl)CC2C1 (centres unmarked) [Ex. 44, 3-(5-((5-chloro-2-((1-(2-hydroxyethyl)-1H-pyrazol-4-yl)amino)pyrimidin-4-yl)amino)hexahydrocyclopenta[c]pyrrol-2(1H)-yl)-3-oxopropanenitrile] | – | – | – | – |
| 4.13 L/h/kg | 26.0% | 0.244 µg·h/mL | 28.8 min | 1.53 L/kg | 0.5 nM | 20.6 min | 7.23 L/h/kg | 39.3 min | 2.65 L/h/kg | N#CCC(=O)N1CC2CC(Nc3nc(Nc4cnn(CC5CC5)c4)ncc3Cl)CC2C1 (centres unmarked) [Ex. 46, 3-(5-((5-chloro-2-((1-(cyclopropylmethyl)-1H-pyrazol-4-yl)amino)pyrimidin-4-yl)amino)hexahydrocyclopenta[c]pyrrol-2(1H)-yl)-3-oxopropanenitrile] | – | – | – | – |
| – | – | – | – | – | 5 nM | 240 min | 0.62 L/h/kg | 244 min | 0.427 L/h/kg | Cc1cnc(Nc2cnn(C)c2)nc1NC1CC2CN(C(=O)CC#N)CC2C1 (centres unmarked) [Ex. 60, 3-(5-((5-methyl-2-((1-methyl-1H-pyrazol-4-yl)amino)pyrimidin-4-yl)amino)hexahydrocyclopenta[c]pyrrol-2(1H)-yl)-3-oxopropanenitrile] | – | – | – | – |
